The target of experiment [1] is T1, Muscarinic acetylcholine receptor M2 (Rattus norvegicus, UniProt P10980).
T1 sequence (P10980 whole entry): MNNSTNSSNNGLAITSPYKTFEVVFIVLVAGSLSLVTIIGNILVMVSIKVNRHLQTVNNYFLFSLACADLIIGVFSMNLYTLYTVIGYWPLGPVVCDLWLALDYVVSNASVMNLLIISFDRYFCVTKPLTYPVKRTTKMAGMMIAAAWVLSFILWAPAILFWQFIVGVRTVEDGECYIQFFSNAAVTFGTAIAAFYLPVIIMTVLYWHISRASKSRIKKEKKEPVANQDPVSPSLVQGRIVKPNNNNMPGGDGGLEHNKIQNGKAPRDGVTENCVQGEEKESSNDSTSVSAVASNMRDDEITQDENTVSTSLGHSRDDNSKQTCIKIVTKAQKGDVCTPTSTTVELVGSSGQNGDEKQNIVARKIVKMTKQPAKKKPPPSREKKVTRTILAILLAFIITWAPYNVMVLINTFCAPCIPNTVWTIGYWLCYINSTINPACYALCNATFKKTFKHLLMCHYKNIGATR

Experiment [2] is described as follows: Inhibition of binding of [3H]nicotine to neural nicotinic cholinergic receptor in rat brain membranes at 10e-5 M of compound concentration. The class given is cell membranes.
The target in experiment [3] is T2, Muscarinic acetylcholine receptor M1 (Rattus norvegicus, UniProt P08482).
T2 sequence (P08482 whole entry): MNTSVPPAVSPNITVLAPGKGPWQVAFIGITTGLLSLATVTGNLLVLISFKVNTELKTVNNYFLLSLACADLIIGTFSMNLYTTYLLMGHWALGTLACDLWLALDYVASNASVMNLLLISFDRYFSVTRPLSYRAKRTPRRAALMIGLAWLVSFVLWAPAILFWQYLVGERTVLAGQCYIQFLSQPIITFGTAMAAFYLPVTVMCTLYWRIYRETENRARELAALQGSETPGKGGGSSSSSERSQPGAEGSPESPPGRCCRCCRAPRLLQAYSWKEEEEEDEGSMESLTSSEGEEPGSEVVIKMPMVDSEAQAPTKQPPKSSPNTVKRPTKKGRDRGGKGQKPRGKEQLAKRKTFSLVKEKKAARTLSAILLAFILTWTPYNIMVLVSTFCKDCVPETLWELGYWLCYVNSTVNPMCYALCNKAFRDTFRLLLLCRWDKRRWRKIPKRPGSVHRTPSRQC
The experiment can be described thus: Inhibition of binding of [3H]quinuclidinyl benzilate to Muscarinic acetylcholine receptor M1 in rat brain cortex at 10e-5 M of compound concentration. The class given is tissue-based.

In experiment [4] the target is T2, Muscarinic acetylcholine receptor M1. In words: Inhibition of binding of [3H]quinuclidinyl benzilate to Muscarinic acetylcholine receptor M1 in rat brain cortex at 10e-5 M of compound concentration; Residual radioligand binding higher than 80%. The experiment is classed as tissue-based.
Experiment [5] addresses 5-hydroxytryptamine receptor 1B (Rattus norvegicus) (UniProt P28564). The experiment can be described thus: Inhibition of [3H]5-HT binding to 5-hydroxytryptamine 1B receptor in rat striatum; Less active. The experiment is classed as tissue-based.
Experiment [6] has as its target T3, 5-hydroxytryptamine receptor 1A (Rattus norvegicus) (UniProt P19327).
T3 sequence (whole entry): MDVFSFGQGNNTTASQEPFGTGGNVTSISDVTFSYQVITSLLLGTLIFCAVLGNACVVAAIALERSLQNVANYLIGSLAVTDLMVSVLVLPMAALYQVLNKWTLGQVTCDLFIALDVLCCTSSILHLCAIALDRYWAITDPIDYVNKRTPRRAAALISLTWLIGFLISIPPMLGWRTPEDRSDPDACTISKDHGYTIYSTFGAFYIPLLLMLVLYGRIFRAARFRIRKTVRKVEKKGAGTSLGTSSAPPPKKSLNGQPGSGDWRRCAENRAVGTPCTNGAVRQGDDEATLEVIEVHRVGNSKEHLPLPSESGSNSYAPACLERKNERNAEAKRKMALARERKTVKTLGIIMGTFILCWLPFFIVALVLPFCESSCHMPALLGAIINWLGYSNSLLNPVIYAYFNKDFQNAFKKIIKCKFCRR
The experiment can be described thus: Inhibition of [3H]8-hydroxy-2-dipropylamino-1,2,3,4-tetrahydronaphthalene binding to 5-hydroxytryptamine 1A receptor in hippocampus region of rat brain; Less active. The experiment is classed as tissue-based.

Experiment [7] has as its target T4, Muscarinic acetylcholine receptor M2 (Rattus norvegicus) (UniProt P10980).
T4 sequence (whole entry): T1 sequence (P10980 whole entry)
In words: Inhibition of binding of [3H]quinuclidinyl benzilate to Muscarinic acetylcholine receptor M2 in rat heart atria at 10e-5 M of compound concentration; Less active.

Experiment [8] deals with T5, Muscarinic acetylcholine receptor M1 (Rattus norvegicus) (UniProt P08482).
T5 sequence (whole entry): T2 sequence (P08482 whole entry)
In words: Inhibition of binding of [3H]quinuclidinyl benzilate to Muscarinic acetylcholine receptor M1 in rat brain cortex at 10e-5 M of compound concentration; Less active. The class given is tissue-based.

For experiment [9], the species on record is Rattus norvegicus. In words: Inhibition of binding of [3H]nicotine to neural nicotinic cholinergic receptor in rat brain membranes at 10e-5 M of compound concentration; Less active. The experiment is classed as cell membranes.
Experiment [10] is filed under the species Rattus norvegicus. In words: Inhibition of binding of [3H]-nicotine to neural nicotinic cholinergic receptor in rat brain membranes at 10e-5 M of compound concentration; Less active. The class given is cell membranes.
In experiment [11] the target is T2, Muscarinic acetylcholine receptor M1. The class given is tissue-based, Brain.
In experiment [12] the target is T4, Muscarinic acetylcholine receptor M2 (Rattus norvegicus). In words: Inhibition of binding of [3H]quinuclidinyl benzilate to Muscarinic acetylcholine receptor M2 in rat heart atria at 10e-5 M of compound concentration. Less active.
Experiment [13] addresses T1, Muscarinic acetylcholine receptor M2. The experiment can be described thus: Inhibition of binding of [3H]quinuclidinyl benzilate to Muscarinic acetylcholine receptor M2 in rat heart atria at 10e-5 M of compound concentration.

Drawing on ChEMBL document CHEMBL1132857, “Synthesis and binding studies of some epibatidine analogues” (Bioorg Med Chem Lett, 2000), this text covers IC50 and Activity for 17 compounds.

Chain of 5-hydroxytryptamine receptor 1B (Rattus norvegicus) (P28564 whole entry): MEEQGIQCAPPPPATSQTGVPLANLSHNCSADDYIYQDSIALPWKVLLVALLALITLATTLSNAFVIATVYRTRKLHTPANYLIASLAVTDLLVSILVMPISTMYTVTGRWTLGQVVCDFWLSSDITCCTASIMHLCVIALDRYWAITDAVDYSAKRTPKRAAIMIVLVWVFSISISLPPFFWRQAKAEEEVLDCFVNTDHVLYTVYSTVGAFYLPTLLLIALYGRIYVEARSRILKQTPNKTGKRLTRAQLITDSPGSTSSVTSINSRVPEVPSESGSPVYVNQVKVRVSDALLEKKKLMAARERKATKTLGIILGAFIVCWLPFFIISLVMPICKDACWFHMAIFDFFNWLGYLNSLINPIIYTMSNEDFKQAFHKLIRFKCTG

For `CN1C2C=C(c3cccc(Cl)n3)CC1CC2.O=C(O)/C=C\C(=O)O` (stereo unspecified), the 50% inhibitory concentration (IC50) entry in [1] is “Not Active”; in [2], 264 nM; in experiment [3], 1850 nM.
For the compound `Cl.Clc1cccc(C2=CC3CCC(C2)N3)n1` (stereo unspecified), the IC50 result in [1] was “Not Active”; in experiment [2], 212 nM; in experiment [4] it was “Not Active”.
For the compound `CCOC(=O)N1C2CCC1CC(O)(c1ccc(Cl)cn1)C2` (stereo unspecified), the Activity result (in experiment [5]; in experiment [6]; in experiment [7]; in [8]; in the experiment listed under Rattus norvegicus [9]) was “Weak activity” in each case.
As to `Clc1ccc(C2=CC3CCC(C2)N3)cn1.O=C(O)/C=C\C(=O)O` (stereo unspecified), the results for the IC50 entry in [1], in [2] and in [4] were “Not Active”, 1.7 nM and “Not Active”, respectively.
Regarding `CCOC(=O)OC1(c2ccc(Cl)nc2)CCN(C)CC1`, the Activity result (in experiment [5]; in experiment [6]; in [7]; in [8]; in the experiment filed under Rattus norvegicus [10]) was “Weak activity” each time.
For `CN1CCC(O)(c2ccc(Cl)nc2)CC1`, the Activity result (in [5]; in experiment [6]; in experiment [7]; in experiment [8]; in the experiment filed under Rattus norvegicus [10]) was “Weak activity” in each case.
For the compound `C[n+]1cccc(-c2ccc(Cl)nc2)c1.[I-]`, the half-maximal inhibitory concentration (IC50) result in [1] is “Not Active”; in experiment [2], 77 nM; in [11] it was “Not Active”.
Take `CN1C2CCC1CC(O)(c1ccc(Cl)cn1)C2` (stereo unspecified): the Activity result (in experiment [5]; in experiment [6]; in [12]; in experiment [8]; in the experiment filed under Rattus norvegicus [9]) was “Weak activity” throughout.
With `CCOC(=O)N1C2CCC1CC(O)(c1ccc(Cl)nc1)C2` (stereo unspecified), the Activity entry (in experiment [5]; in experiment [6]; in experiment [7]; in experiment [8]; in the experiment filed under Rattus norvegicus [10]) was “Weak activity” in each case.
`CN1C2C=C(c3ccc(Cl)cn3)CC1CC2` (stereo unspecified): the Activity entry (in experiment [5]; in experiment [6]; in experiment [7]; in [8]; in the experiment filed under Rattus norvegicus [10]) was “Weak activity” in each case.
For `CCOC(=O)N1C2CCC1CC(O)(c1cccc(Cl)n1)C2` (stereo unspecified), the Activity entry (in [5]; in experiment [6]; in experiment [7]; in [8]; in the experiment listed under Rattus norvegicus [9]) was “Weak activity” each time.
Turning to `Clc1ccc(-c2cccnc2)cn1`, the Activity result (in experiment [5]; in [6]; in [7]; in experiment [8]; in the experiment filed under Rattus norvegicus [9]) was “Weak activity” throughout.
In the case of `CN1CC=C(c2ccc(Cl)nc2)CC1.Cl`, the IC50 entry in experiment [1] was “Not Active”; in experiment [2], 12.5 nM; in experiment [11], “Not Active”.
With `CN1C2C=C(c3ccc(Cl)nc3)CC1CC2` (stereo unspecified), the values for the IC50 in experiment [13], in experiment [2] and in [3] were 4180 nM, 1.8 nM and 2140 nM, respectively.
As to `CN1CCC=C(c2ccc(Cl)nc2)C1.O=C(O)/C=C\C(=O)O`, the half-inhibitory concentration (IC50) is 3510 nM in experiment [13], 2.2 nM in experiment [2] and “Not Active” in [11].
`CN1C2CCC1CC(O)(c1cccc(Cl)n1)C2` (stereo unspecified): the Activity entry (in [5]; in experiment [6]; in experiment [7]; in [8]; in the experiment filed under Rattus norvegicus [10]) was “Weak activity” in each case.
In the case of `CN1C2CCC1CC(O)(c1ccc(Cl)nc1)C2` (stereo unspecified), the Activity result (in experiment [5]; in experiment [6]; in experiment [7]; in [8]; in the experiment listed under Rattus norvegicus [10]) was “Weak activity” in each case.

What is called IC50 is the concentration at which inhibition is half-maximal. Low readings indicate greater potency in that assay, high ones weaker potency in that assay.
